Results as given in patent US20070232563A1, “Method for Enhancing Biological Activity and/or Expanding Suitable Region for Biological Activity of Living Body Contacting with Aqueous Environment” (Kabushiki Kaisha Hayashibara Seibutsu Kagaku Kenky, priority 2004, published 2007).

How the values were obtained:
unpolished rice = assay: Germination of unpolished rice in aqueous mineral solution; type: in vivo
Method: Suitable mineral range of aqueous mineral solutions containing saccharides was examined by using unpolished rice as an agricultural product. In detail, a commercialized purified salt as a mineral was dissolved in tap water to give a final concentration of 0.5, 1.0, 1.5, or 2.0 as described in the following Table 6. α,α-Trehalose or α-maltosyl α,α-trehalose was dissolved in the resulting solutions to give a final concentration of 1 w/v %, on a dry solid basis. Absorbent cotton was allowed to absorb the resulting solution in an appropriate amount and placed in a plastic laboratory dish with a cover. Commercialized unpolished rice grains were placed on the cotton in the dish by 20 grains per group and kept at ambient temperature (25° C.) under a light-shaded condition by covering with a black cloth. As controls, an aqueous mineral solution without saccharides, and water without saccharides and minerals were prepared. […] Effective concentration of α,α-trehalose or α-maltosyl α,α-trehalose on expanding suitable region for biological activity of unpolished rice grains were determined by examining the number of germinated unpolished rice grains and germination time as an index in accordance with the method in Experiment 6 in the aqueous mineral solution with mineral concentration of 1.5 w/v %, where α,α-trehalose or α-maltosyl α,α-trehalose was effective in Experiment 6, containing α,α-trehalose or α-maltosyl α,α-trehalose in a concentration of 0.01, 0.1, 1, 2, 3, 4 or 6 w/v %, on a dry solid basis. As a control, water without saccharides or minerals was used.

[1] = system: short-necked clam (Ruditapes philippinarum); assay: Biological activity of short-necked clam (aqueduct extension score) in aqueous mineral solutions; type: in vivo; settings: for Judgment score of biological activity: Experiment 2; for Judgment score for biological activity: total of 18 clams, 16 h
Method: Suitable region for biological activity of short-necked clam (Ruditapes philippinarum), as a fish or shellfish living in seawater, was examined by adding various saccharides to mineral aqueous solutions with various concentrations. In detail, solar salt (85% by weight of sodium chloride and 15% by weight of magnesium) as minerals was dissolved in running water kept in a container for two days to give final concentrations described in the following Table 1. Saccharide (any one of D-glucose, maltose, sucrose, maltitol, α,α-trehalose, α-maltosyl α,α-trehalose, maltotetraose and cyclic tetrasaccharide) was dissolved in the resulting salt solutions to give a final concentration of 1 w/v %, on a dry solid basis. Each of the resulting solutions was placed in a plastic bat. Eighteen pre-selected active short-necked clam in one group were placed in the bat. The bat was shaded with a black cloth and left at ambient temperature (18° C.) for 16 hours. As a control, an aqueous solar salt solution without any saccharides was prepared. Saccharides except for α-maltosyl α,α-trehalose as a saccharide derivatives thereof and cyclic tetrasaccharide were chosen from commercialized products. α-Maltosyl α,α-trehalose as saccharide derivatives of α,α-trehalose in a powder form with a purity of 98 w/w % or over was prepared by the method disclosed in Experiment 4 in Japanese Patent Kokai No. 143876/1995. Cyclic tetrasaccharide in a crystalline form with a purity of 98 w/w % or over, on a dry solid basis, was prepared by the method disclosed in Example A-7 in International Patent Publication No. WO02/10361. Influence of various saccharides was judged by observing the degree of extending aqueduct of the shellfish; 3 points: its aqueduct is well extended; 2 points: its aqueduct is slightly extended; 1 point: its aqueduct is not extended but its shells are opened; 0 point: its shells are closed. The effect on biological activity was judged by the total point of 18 shellfishes. To investigate the effective concentration range of α,α-trehalose or α-maltosyl α,α-trehalose against a mineral solution with a concentration of 1.5 w/v % or 4.5 w/v %, where α,α-trehalose or α-maltosyl α,α-trehalose was remarkably effective in Experiment 1, the following experiment using α,α-trehalose or α-maltosyl α,α-trehalose at a concentration of 0.01, 0.1, 1, 2, 3 or 4 w/v % was carried out according to the method in Experiment 1. As a control, mineral aqueous solutions with a concentration of 1.5 w/v % or 4.5 w/v % without any of the saccharides were prepared and carried out in the same manner.

[2] = mineral 1.5 w/v %, saccharide 1 w/v %
[3] = mineral 4.5 w/v %, saccharide 1 w/v %

SMILES: OC[C@H]1O[C@H](O[C@H]2O[C@H](CO)[C@@H](O[C@H]3O[C@H](CO)[C@@H](O[C@H]4O[C@H](CO)[C@@H](O)[C@H](O)[C@H]4O)[C@H](O)[C@H]3O)[C@H](O)[C@H]2O)[C@H](O)[C@@H](O)[C@@H]1O [α-Maltosyl α,α-trehalose, α-maltosyl α,α-trehalose]
- Germinated grains (Number) (unpolished rice; Experiment 7, mineral 1.5 w/v %, saccharide 0.01 w/v %, 48 hours): 0
- Germinated grains (Number) (unpolished rice; Experiment 7, mineral 1.5 w/v %, saccharide 0.01 w/v %, 72 hours): 2
- Germinated grains (Number) (unpolished rice; Experiment 7, mineral 1.5 w/v %, saccharide 0.01 w/v %, 96 hours): 2
- Germinated grains (Number) (unpolished rice; Experiment 7, mineral 1.5 w/v %, saccharide 0.01 w/v %, 120 hours): 2
- Germinated grains (Number) (unpolished rice; Experiment 7, mineral 1.5 w/v %, saccharide 0.1 w/v %, 48 hours): 0
- Germinated grains (Number) (unpolished rice; Experiment 7, mineral 1.5 w/v %, saccharide 0.1 w/v %, 72 hours): 2
- Germinated grains (Number) (unpolished rice; Experiment 7, mineral 1.5 w/v %, saccharide 0.1 w/v %, 96 hours): 4
- Germinated grains (Number) (unpolished rice; Experiment 7, mineral 1.5 w/v %, saccharide 0.1 w/v %, 120 hours): 5
- Germinated grains (Number) (unpolished rice; Experiment 7, mineral 1.5 w/v %, saccharide 1 w/v %, 48 hours): 1
- Germinated grains (Number) (unpolished rice; Experiment 7, mineral 1.5 w/v %, saccharide 1 w/v %, 72 hours): 3
- Germinated grains (Number) (unpolished rice; Experiment 7, mineral 1.5 w/v %, saccharide 1 w/v %, 96 hours): 5
- Germinated grains (Number) (unpolished rice; Experiment 7, mineral 1.5 w/v %, saccharide 1 w/v %, 120 hours): 5
- Germinated grains (Number) (unpolished rice; Experiment 7, mineral 1.5 w/v %, saccharide 2 w/v %, 48 hours): 1
- Germinated grains (Number) (unpolished rice; Experiment 7, mineral 1.5 w/v %, saccharide 2 w/v %, 72 hours): 6
- Germinated grains (Number) (unpolished rice; Experiment 7, mineral 1.5 w/v %, saccharide 2 w/v %, 96 hours): 6
- Germinated grains (Number) (unpolished rice; Experiment 7, mineral 1.5 w/v %, saccharide 2 w/v %, 120 hours): 6
- Germinated grains (Number) (unpolished rice; Experiment 7, mineral 1.5 w/v %, saccharide 3 w/v %, 48 hours): 1
- Germinated grains (Number) (unpolished rice; Experiment 7, mineral 1.5 w/v %, saccharide 3 w/v %, 72 hours): 4
- Germinated grains (Number) (unpolished rice; Experiment 7, mineral 1.5 w/v %, saccharide 3 w/v %, 96 hours): 5
- Germinated grains (Number) (unpolished rice; Experiment 7, mineral 1.5 w/v %, saccharide 3 w/v %, 120 hours): 5
- Germinated grains (Number) (unpolished rice; Experiment 7, mineral 1.5 w/v %, saccharide 4 w/v %, 48 hours): 0
- Germinated grains (Number) (unpolished rice; Experiment 7, mineral 1.5 w/v %, saccharide 4 w/v %, 72 hours): 3
- Germinated grains (Number) (unpolished rice; Experiment 7, mineral 1.5 w/v %, saccharide 4 w/v %, 96 hours): 3
- Germinated grains (Number) (unpolished rice; Experiment 7, mineral 1.5 w/v %, saccharide 4 w/v %, 120 hours): 3
- Germinated grains (Number) (unpolished rice; Experiment 7, mineral 1.5 w/v %, saccharide 6 w/v %, 48 hours): 0
- Germinated grains (Number) (unpolished rice; Experiment 7, mineral 1.5 w/v %, saccharide 6 w/v %, 72 hours): 0
- Germinated grains (Number) (unpolished rice; Experiment 7, mineral 1.5 w/v %, saccharide 6 w/v %, 96 hours): 1
- Germinated grains (Number) (unpolished rice; Experiment 7, mineral 1.5 w/v %, saccharide 6 w/v %, 120 hours): 1
- Germinated grains (Number) (unpolished rice; mineral 0.5 w/v %, saccharide 1 w/v %, 24 hours, 20 grains): 0
- Germinated grains (Number) (unpolished rice; mineral 0.5 w/v %, saccharide 1 w/v %, 48 hours, 20 grains): 15
- Germinated grains (Number) (unpolished rice; mineral 0.5 w/v %, saccharide 1 w/v %, 72 hours, 20 grains): 19
- Germinated grains (Number) (unpolished rice; mineral 0.5 w/v %, saccharide 1 w/v %, 96 hours, 20 grains): 20
- Germinated grains (Number) (unpolished rice; mineral 0.5 w/v %, saccharide 1 w/v %, 120 hours, 20 grains): 20
- Germinated grains (Number) (unpolished rice; mineral 1.0 w/v %, saccharide 1 w/v %, 24 hours, 20 grains): 0
- Germinated grains (Number) (unpolished rice; mineral 1.0 w/v %, saccharide 1 w/v %, 48 hours, 20 grains): 3
- Germinated grains (Number) (unpolished rice; mineral 1.0 w/v %, saccharide 1 w/v %, 72 hours, 20 grains): 10
- Germinated grains (Number) (unpolished rice; mineral 1.0 w/v %, saccharide 1 w/v %, 96 hours, 20 grains): 16
- Germinated grains (Number) (unpolished rice; mineral 1.0 w/v %, saccharide 1 w/v %, 120 hours, 20 grains): 16
- Germinated grains (Number) (unpolished rice; mineral 1.5 w/v %, saccharide 1 w/v %, 24 hours, 20 grains): 0
- Germinated grains (Number) (unpolished rice; mineral 1.5 w/v %, saccharide 1 w/v %, 48 hours, 20 grains): 1
- Germinated grains (Number) (unpolished rice; mineral 1.5 w/v %, saccharide 1 w/v %, 72 hours, 20 grains): 3
- Germinated grains (Number) (unpolished rice; mineral 1.5 w/v %, saccharide 1 w/v %, 96 hours, 20 grains): 5
- Germinated grains (Number) (unpolished rice; mineral 1.5 w/v %, saccharide 1 w/v %, 120 hours, 20 grains): 5
- Germinated grains (Number) (unpolished rice; mineral 2.0 w/v %, saccharide 1 w/v %, 24 hours, 20 grains): 0
- Germinated grains (Number) (unpolished rice; mineral 2.0 w/v %, saccharide 1 w/v %, 48 hours, 20 grains): 0
- Germinated grains (Number) (unpolished rice; mineral 2.0 w/v %, saccharide 1 w/v %, 72 hours, 20 grains): 0
- Germinated grains (Number) (unpolished rice; mineral 2.0 w/v %, saccharide 1 w/v %, 96 hours, 20 grains): 0
- Germinated grains (Number) (unpolished rice; mineral 2.0 w/v %, saccharide 1 w/v %, 120 hours, 20 grains): 0
- Judgment score of biological activity ([1]; mineral 1.5 w/v %, saccharide 0.01 w/v %): 18
- Judgment score of biological activity ([1]; mineral 1.5 w/v %, saccharide 0.1 w/v %): 35
- Judgment score of biological activity [1, 2]: 41
- Judgment score of biological activity ([1]; mineral 1.5 w/v %, saccharide 2 w/v %): 43
- Judgment score of biological activity ([1]; mineral 1.5 w/v %, saccharide 3 w/v %): 34
- Judgment score of biological activity ([1]; mineral 1.5 w/v %, saccharide 4 w/v %): 16
- Judgment score of biological activity ([1]; mineral 4.5 w/v %, saccharide 0.01 w/v %): 16
- Judgment score of biological activity ([1]; mineral 4.5 w/v %, saccharide 0.1 w/v %): 37
- Judgment score of biological activity [1, 3]: 44
- Judgment score of biological activity ([1]; mineral 4.5 w/v %, saccharide 2 w/v %): 45
- Judgment score of biological activity ([1]; mineral 4.5 w/v %, saccharide 3 w/v %): 30
- Judgment score of biological activity ([1]; mineral 4.5 w/v %, saccharide 4 w/v %): 15
- Judgment score for biological activity ([1]; mineral 0 w/v %, saccharide 1 w/v %): 11
- Judgment score for biological activity ([1]; mineral 0.5 w/v %, saccharide 1 w/v %): 14
- Judgment score for biological activity ([1]; mineral 1.0 w/v %, saccharide 1 w/v %): 36
- Judgment score for biological activity [1, 2]: 40
- Judgment score for biological activity ([1]; mineral 2.0 w/v %, saccharide 1 w/v %): 45
- Judgment score for biological activity ([1]; mineral 2.5 w/v %, saccharide 1 w/v %): 49
- Judgment score for biological activity ([1]; mineral 3.0 w/v %, saccharide 1 w/v %): 53
- Judgment score for biological activity ([1]; mineral 3.5 w/v %, saccharide 1 w/v %): 50
- Judgment score for biological activity ([1]; mineral 4.0 w/v %, saccharide 1 w/v %): 47
- Judgment score for biological activity [1, 3]: 45
- Judgment score for biological activity ([1]; mineral 5.0 w/v %, saccharide 1 w/v %): 33
- Judgment score for biological activity ([1]; mineral 5.5 w/v %, saccharide 1 w/v %): 11
- Judgment score for biological activity ([1]; mineral 6.0 w/v %, saccharide 1 w/v %): 2
